pIC50: −log10 of the molar value.
What was measured:
[1] = biological target: T1, Prostaglandin G/H synthase 1 (Homo sapiens, UniProt P23219); test: Inhibitory activity against recombinant human prostaglandin G/H synthase 1
[2] = biological target: T1, Prostaglandin G/H synthase 1
Description: Inhibitory potency against Prostaglandin G/H synthase 1 in human whole blood assay

[3] = biological target: T2, Prostaglandin G/H synthase 2 (Homo sapiens, UniProt P35354)
T2 sequence (P35354 whole entry): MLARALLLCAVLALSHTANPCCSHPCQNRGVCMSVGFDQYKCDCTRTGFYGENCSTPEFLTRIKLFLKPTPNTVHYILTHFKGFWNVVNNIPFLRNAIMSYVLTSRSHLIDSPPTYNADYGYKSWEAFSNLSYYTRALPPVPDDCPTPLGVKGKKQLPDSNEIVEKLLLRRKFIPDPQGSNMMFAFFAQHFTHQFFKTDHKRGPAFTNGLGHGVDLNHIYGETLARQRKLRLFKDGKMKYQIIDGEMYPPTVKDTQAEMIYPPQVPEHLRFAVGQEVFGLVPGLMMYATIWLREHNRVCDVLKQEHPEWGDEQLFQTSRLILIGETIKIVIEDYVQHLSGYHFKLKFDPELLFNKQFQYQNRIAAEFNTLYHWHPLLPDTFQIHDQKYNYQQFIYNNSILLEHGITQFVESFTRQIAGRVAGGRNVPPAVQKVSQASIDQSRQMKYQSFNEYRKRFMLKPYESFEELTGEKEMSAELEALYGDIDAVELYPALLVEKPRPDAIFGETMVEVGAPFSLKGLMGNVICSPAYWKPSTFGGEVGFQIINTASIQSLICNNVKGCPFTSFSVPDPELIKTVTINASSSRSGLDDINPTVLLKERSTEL
Description: Inhibitory activity against recombinant human Prostaglandin G/H synthase 2

[4] = biological target: T2, Prostaglandin G/H synthase 2; remark: listed apart in the source
Description: Inhibitory potency against cyclooxygenase-2 in human whole blood assay

T1 sequence (P23219 whole entry): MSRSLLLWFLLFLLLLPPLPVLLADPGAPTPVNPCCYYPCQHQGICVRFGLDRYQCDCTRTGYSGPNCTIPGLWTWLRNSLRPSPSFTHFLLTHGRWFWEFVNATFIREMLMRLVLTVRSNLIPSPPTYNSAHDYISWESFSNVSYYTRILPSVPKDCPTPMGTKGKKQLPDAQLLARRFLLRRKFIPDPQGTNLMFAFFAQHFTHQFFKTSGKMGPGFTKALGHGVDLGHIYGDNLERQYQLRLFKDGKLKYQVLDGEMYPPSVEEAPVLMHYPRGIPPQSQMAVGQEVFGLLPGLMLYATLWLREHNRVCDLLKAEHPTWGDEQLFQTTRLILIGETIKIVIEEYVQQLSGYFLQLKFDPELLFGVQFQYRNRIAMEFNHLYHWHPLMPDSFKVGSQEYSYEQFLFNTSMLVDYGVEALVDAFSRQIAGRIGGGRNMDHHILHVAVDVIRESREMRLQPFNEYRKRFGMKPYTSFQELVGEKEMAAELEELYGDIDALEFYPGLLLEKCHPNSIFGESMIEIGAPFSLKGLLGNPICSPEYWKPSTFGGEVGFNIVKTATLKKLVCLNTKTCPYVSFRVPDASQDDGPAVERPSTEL

Row | pIC50 [1] | pIC50 [2] | pIC50 [3] | pIC50 [4] | SMILES
1 | < 4.00 | 4.82 | 6.64 | 6.32 | CS(=O)(=O)c1ccc(C2=C(c3ccc(F)c(F)c3)C(=O)OC2)cc1
2 | < 4.00 | 5.19 | < 4.00 | 4.87 | CC(C(=O)O)c1ccc(CC2CCCC2=O)cc1 (stereo not drawn) [LOXOPROFEN]

From ChEMBL document CHEMBL1147594, “Evaluation of loxoprofen and its alcohol metabolites for potency and selectivity of inhibition of cyclooxygenase-2” (Bioorg Med Chem Lett, 2004)
